Laboratory results reported in patent publication US20170129911A1, “COMPLEXES COMPRISING A PLATINUM COMPOUND AND AN IMMUNE CHECKPOINT INHIBITOR AND RELATED METHODS” (Massachusetts Institute of Technology, priority 2015, published 2017).
Blank lines part the entries; values can stand above or below the molecule they belong to.

Columns and labels:
[1] = test system: human IDO in SKOV3 cells; assay: Immunoblotting and qRT-PCR of IDO expression in SKOV3 cells; assay type: cell-based
Procedure: Total RNA was isolated with the Qiagen RNAeasy RNA isolation kit (Hilden, Germany) and cDNA was synthesized with the Applied Biosystems reverse-transcription-kit (Foster City, Calif., USA). qRT-PCR was performed in a Light cycler 480 II thermo cycler with SYBR Green PCR Mastermix (Roche). All primers were separated by at least one intron on the genomic DNA to exclude its amplification. PCR reactions were checked by including no-RT controls, by omission of templates, and by melting curves. Standard curves were generated for each gene. Relative quantification of gene expression was determined by comparison of threshold values. All samples were analyzed in duplicate at two different dilutions. All results were normalized to GAPDH.
Cells were washed with PBS, scraped into SDS-PAGE loading buffer (64 mM Tris-HCl (pH 6.8)/9.6% glycerol/2% SDS/5% β-mercaptoethanol/0.01% Bromophenol Blue), and incubated at 95° C. for 10 min. […] Membranes were blocked in 5% (w/v) bovine serum albumin in PBST (PBS/0.1% Tween 20) and incubated with the appropriate primary antibodies (Cell Signalling Technology and Santa Cruz). After incubation with horseradish peroxidase-conjugated secondary antibodies (Cell Signalling Technology), 1:1000, immuno complexes were detected with the ECL detection reagent (BioRad) and analyzed using UVP biospectrum imaging system fitted with a chemiluminescence filter.

[2] = Whole human blood stability test; assay type: in vitro ADME
Procedure: To a volume of 0.8 mL fresh whole human blood (Innovative Research, Novi, Mich.) was added 24 μL of a DMSO solution of 2 (2.0 mM), resulting in a final concentration of 60 μM. After 5 sec of vortexing, a 100 μL aliquot of the blood sample (0 h time point) was immediately transferred to a new tube containing 300 μL of octanol, and the remaining […] of blood was incubated at 37° C. with rotation (1100 rpm). The blood-octanol mixture was vortexed for 2 min at R.T. and then centrifuged to separate the phases. The isolated octanol extract was diluted with methanol for GFAAS measurement. At varying time points (1 h, 2 h, 3 h, 5 h, and 7 h), a 100 μL aliquot was removed from the incubating blood and extracted as described above. For the 7 h sample, analytical HPLC was employed to confirm the integrity of the Pt compound. A standard of 2 and an octanol extract from blank whole human blood were used for comparison.

[3] = Tolerability/toxicity in mice; assay type: in vivo
[4] = physchem
[5] = test system: SKOV3 human ovarian cancer cells; assay: Cytotoxicity MTT assay, SKOV3; assay type: cell-based
Text: (§1) Ovarian carcinoma cells, NIH:OVCAR3, A2780, A2780/CP70, and SKOV3 were purchased from the American Type Culture Collection (ATCC, Rockville Md.). Peripheral blood mononuclear cells (PBMCs) of two different donors were obtained from Zen Bio Inc. (Research Triangle, NC). Cancer cell lines were maintained in Roswell Park Memorial Institute (RPMI) medium (glutamine-free supplemented with 10% fetal bovine serum, Atlanta Biologics, Atlanta Ga.) and 1% penicillin/streptomycin. PBMCs were thawed in specialized medium (10% […], 40% RPMI and 50% FBS) and subsequently cultured in RPMI containing 20% FBS. For T-cell proliferation experiments, PBMCs were stimulated by the addition of phytohemagglutinin (PHA-P). All cells were grown at 310 K in a humidified atmosphere containing 5% CO2. D-1-methyltryptophan, L-tryptophan and L-kynurenine were purchased from Sigma Aldrich.
(§2) The colorimetric MTT assay was used to determine the toxicity of 1, 2, and cisplatin. Cells (2×10^3) were seeded in each well of a 96-well plate. […] Cisplatin was prepared as a 5 mM solution in PBS and diluted using media. 1, 2 and C16—Pt-Suc-NHC2H4OH were prepared as 10 mM solution in DMSO and diluted using media. […] The absorbance of the solution wells was read at 570 and 650 nm. Absorbance values were normalized to DMSO-containing control wells and plotted as concentration of test compound versus % cell viability. […]

[6] = Water-octanol partition coefficient (Log P), shake-flask method and GFAAS; settings: octanol/PBS
[7] = test system: NIH:OVCAR3 human ovarian cancer cells; assay: Cytotoxicity MTT assay, NIH:OVCAR3; assay type: cell-based
Text: as §1, §2

[8] = test system: A2780 human ovarian cancer cells; assay: Cytotoxicity MTT assay, A2780; assay type: cell-based; settings: 72 h
Text: as §1, §2

[9] = test system: A2780/CP70 human ovarian cancer cells; assay: Cytotoxicity MTT assay, A2780/CP70; assay type: cell-based; settings: A2780/CP70, MTT, 72 h
Text: as §1
The colorimetric MTT assay was used to determine the toxicity of 1, 2, and cisplatin. Cells (2×10^3) were seeded in each well of a 96-well plate. […] Cisplatin was prepared as a 5 mM solution in PBS and diluted using media. 1, 2 and C16—Pt-Suc-NHC2H4OH were prepared as 10 mM solution in DMSO and diluted using media. The final volume amount of DMSO in each well was 0.5%, and which was present in the untreated control as well. Cells co-incubated with cisplatin and (D)-1-MT were first pre-treated with 1 mM (D)-1-MT. […] The RPMI/MTT, mixture was aspirated and 100 μL of DMSO was added to dissolve the resulting purple formazan crystals. The absorbance of the solution wells was read at 570 and 650 nm. Absorbance values were normalized to DMSO-containing control wells and plotted as concentration of test compound versus % cell viability. IC50 values were interpolated from the resulting dose dependent curves. The reported IC50 values are the average of at least three independent experiments, each of which consisted of six replicates per concentration level.

[10] = test system: HCT 116 P53−/− colorectal cell line; assay: MTT anticancer activity, HCT116 p53 −/−; assay type: cell-based; settings: 48 h
Procedure: (§3) An MTT assay was run to measure the compounds anti cancer activity. The two colorectal cell lines HCT 116 P53+/+ and HCT 116 P53−/− were plated on 96 well plates. After adhesion to the plate, each individual compound was added to three rows, each consisting of 8 wells with a 3 fold dilution in concentration per well beginning at 25 μM. After 48 hours of incubation, the MTT reagent was added to the plates, which were then incubated for another 4 hours. The well contents were then dissolved in 200 μL of DMSO, and the plates were read for UV absorption at 570 nm and 650 nm. The collected data was then analyzed to produce the sigmoidal curves, which were then used to interpolate the IC50 values of each compounds. (See Table 3).

[11] = test system: HCT 116 P53+/+ colorectal cell line; assay: MTT anticancer activity, HCT116 p53 +/+; assay type: cell-based; settings: 48 h
Procedure: as §3

[12] = reported values used for comparison with human blood stability; cited from earlier work
[13] = test system: SKOV3 cells; assay: Cell cycle analysis by flow cytometry (DNA content)
[14] = test system: genomic DNA; assay: DNA platination experiments; assay type: cell-based, human; settings: SKOV3, 10 μM, 17 h
Procedure: To gain further insight into the mode of action was studied of 1 and 2, the subcellular distribution of platinum. SKOV3 cells were incubated with the drug candidates (5 μM) for 17 h, using cisplatin as a control. The platinum content was measured by using GFAAS.
These cells were then treated with the compounds (10 μM) in fresh medium (9 mL) and subsequently incubated for 17 h at 37° C. The medium was aspirated and the cells were washed with PBS (3×8 mL), harvested by trypsinization (1 mL), and washed with 2 mL of PBS. The cell suspension was centrifuged at 2000 rpm for 5 min at 4° C. The cell pellet was suspended in DNAzol (1 mL, genomic DNA isolation reagent,). The DNA was precipitated with pure ethanol (0.5 mL), washed with 75% ethanol (0.75 mL×3), and re-dissolved in 500 μL of 8 mM NaOH. The DNA concentration was determined by UV-Vis spectroscopy and the platinum content was quantified by GFAAS. All experiments were carried out in triplicate.

Molecule: Cn1cc(C[C@@H](N)C(=O)[O][Pt]([NH2])([NH2])([Cl])([Cl])[O]C(=O)[C@H](N)Cc2cn(C)c3ccccc23)c2ccccc21 (mixture of isomers) [Compound 1, cis,cis,trans-[Pt(NH3)2Cl2(O2C-D-1-MT)2]]
concentration at which IDO protein expression is blocked ([1]; immunoblotting): 100 µM
stability in blood [2]: stable in blood
toxicity / tolerance in mice [3]: low toxicity in mice
logP at 3 h [4]: -0.21 ± 0.08

logP at 3 h [6]: -2.98 ± 0.15
Molecule: Cn1cc(C[C@@H](N)C(=O)O)c2ccccc21 [(D)-1-MT, D-1-methyltryptophan]
IC50 ([5]; Homo sapiens, SK-OV-3, 72 h): 1918 ± 8.4 µM
IC50 ([7]; Homo sapiens, OVCAR-3, 72 h): 1200 ± 80 µM
IC50 ([8]; Homo sapiens): 833 ± 7.53 µM
IC50 ([9]; Homo sapiens): 1040 ± 63.9 µM

Molecule: CCCCCCCCCCCCCCCCNC(=O)[O][Pt]([NH2])([NH2])([Cl])([Cl])[O]C(=O)CCC(=O)O [C16—Pt-Suc, reference compound]
IDO protein expression (IDO inhibition) ([1]; immunoblotting and qRT-PCR): did not show IDO inhibition

Molecule: O=C(O)C(=O)O.[NH-][C@@H]1CCCC[C@H]1[NH-].[Pt+2] [Oxaliplatin]
IC50 [10]: 6.55 ± 1.78 µM
IC50 [11]: 1.32 ± 1.48 µM

Molecule: CC(=O)[O][Pt]([NH2])([Cl])([Cl])([NH]C1CCCCC1)[O]C(C)=O [satraplatin]
t1/2 (reported) [12]: 6 min

Molecule: [cis-Pt(NH3)2Cl2] [Cisplatin]
cell cycle arrest phase [13]: G2/M arrest
t1/2 (reported) [12]: 21.6 min
IC50 ([5]; 72 h): 3.7 ± 0.28 µM
IC50 ([7]; 72 h): 4.1 ± 0.2 µM
IC50 [8]: 0.7 ± 0.2 µM
IC50 [9]: 10.4 ± 0.6 µM
DNA platination [14]: 409±54 Pt adducts/10^4 nucleotides
